Laboratory results published in US7138361B2, “Herbicidal heterocycles” (E. I. du Pont de Nemours and Company, priority 2000, dated 2006).

Experiments:
Type in all cases: in vivo
Nightshade = assay: Test C preemergence
Sunflower = assay: Test C preemergence
[1] = system: Surinam grass (Brachiaria decumbens); assay: Test C preemergence
Method in brief: (§1)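 Visual 0–100 rating vs controls (0 = no effect, 100 = complete control) at 12–14 d, greenhouse. Compounds in non-phytotoxic solvent + surfactant; pre: sprayed after seeding; post: 1–4-leaf plants, 2–18 cm.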

[2] = system: bermudagrass (Cynodon dactylon); assay: Test C preemergence
Method in brief: as §1

[3] = system: cocklebur (Xanthium strumarium); assay: Test C preemergence
Method in brief: as §1

[4] = system: common ragweed (Ambrosia elatior); assay: Test C preemergence
Method in brief: as §1

corn (Zea mays) = assay: Test C preemergence
Method in brief: as §1

[5] = system: crabgrass (Digitaria sanguinalis); assay: Test C preemergence
Method in brief: as §1

[6] = system: giant foxtail (Setaria faberii); assay: Test C preemergence
Method in brief: as §1

[7] = system: goosegrass (Eleusine indica); assay: Test C preemergence
Method in brief: as §1

[8] = system: johnsongrass (Sorghum halepense); assay: Test C preemergence
Method in brief: as §1

kochia (Kochia scoparia) = assay: Test C preemergence
Method in brief: as §1

[9] = system: lambsquarters (Chenopodium album); assay: Test C preemergence
Method in brief: as §1

[10] = system: morningglory (Ipomoea hederacea); assay: Test C preemergence
Method in brief: as §1

[11] = system: pigweed (Amaranthus retroflexus); assay: Test C preemergence
Method in brief: as §1

soybean (Glycine max) = assay: Test C preemergence
Method in brief: as §1

[12] = system: velvetleaf (Abutilon theophrasti); assay: Test C preemergence
Method in brief: as §1

[13] = system: woolly cupgrass (Eriochloa villosa); assay: Test C preemergence
Method in brief: as §1

[14] = system: yellow nutsedge (Cyperus esculentus); assay: Test C preemergence
Method in brief: as §1

[15] = system: barnyardgrass (Echinochloa crus-galli); assay: Test C flooded paddy test; conditions: for Barnyardgrass plant response rating: Flooded Paddy, scale 0 to 100, 0 no effect, 100 complete control; for Plant response rating, Barnyardgrass: flooded paddy test, scale 0 to 100 (0 no effect, 100 complete control)
Method in brief: (§2)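 Visual injury score, 0 (no effect) to 100 (complete control), relative to controls. Paddy plants treated at 2-leaf stage; greenhouse hold 12–14 d before rating.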

[16] = system: duck salad (Heteranthera limosa); assay: Test C flooded paddy test; conditions: for Ducksalad plant response rating: Flooded Paddy, scale 0 to 100, 0 no effect, 100 complete control; for Plant response rating, Ducksalad: flooded paddy test, scale 0 to 100 (0 no effect, 100 complete control)
Method in brief: as §2

[17] = system: smallflower flatsedge (Cyperus difformis); assay: Test C flooded paddy test; conditions: for Flatsedge plant response rating: Flooded Paddy, scale 0 to 100, 0 no effect, 100 complete control; for Plant response rating, Flatsedge: flooded paddy test, scale 0 to 100 (0 no effect, 100 complete control)
Method in brief: as §2

[18] = Rate 62 g/ha, scale 0 to 100, 0 no effect, 100 complete control
[19] = Preemergence, Rate 500 g/ha, scale 0 to 100
[20] = preemergence, Rate 250 g/ha, visual evaluation after 12 to 14 days
[21] = preemergence, Rate 125 g/ha, scale 0 to 100, 0 no effect, 100 complete control

CCC(C)c1ccn(C2SCN(c3cccc(OC(F)(F)F)c3)C2=O)n1 (centres unmarked) [Compound 40]
20: Plant response rating, Cocklebur [3, 18] | Plant response rating, Cocklebur [3, 21] | Plant response rating, Corn (corn (Zea mays); [21]) | Plant response rating, Soybean (soybean (Glycine max); [21])
70: Plant response rating, Nightshade (Nightshade; Rate 500 g/ha, scale 0 to 100) | Plant response rating, Ragweed, Common [4, 19]
60: Plant response rating, Cocklebur [3, 19] | Plant response rating, Kochia (kochia (Kochia scoparia); [18]) | Plant response rating, Cupgrass, Woolly [13, 18] | Plant response rating, Nutsedge [14, 19]
90: Plant response rating (0 to 100), Surinam grass [1, 20] | Plant response rating, Corn (corn (Zea mays); [19]) | Plant response rating, Foxtail, Giant [6, 18] | Plant response rating, Goosegrass [7, 18] | Plant response rating, Kochia (kochia (Kochia scoparia); [21]) | Plant response rating (0 to 100), Cupgrass, Woolly [13, 20] | Plant response rating, Cupgrass, Woolly [13, 21] | Plant response rating, Ducksalad ([16]; Rate 62 g/ha)
50: Plant response rating (0 to 100), Corn (corn (Zea mays); [20]) | Plant response rating, Johnsongrass [8, 18] | Plant response rating, Velvetleaf [12, 19] | Plant response rating (0 to 100), Nutsedge [14, 20]
30: Plant response rating (0 to 100), Ragweed, Common [4, 20] | Plant response rating (0 to 100), Velvetleaf [12, 20]
80: Plant response rating, Surinam grass [1, 21] | Plant response rating, Bermudagrass [2, 18]
0: Plant response rating, Nightshade (Nightshade; [18]) | Plant response rating, Nightshade (Nightshade; Rate 125 g/ha, scale 0 to 100, 0 no effect, 100 complete control) | Plant response rating, Sunflower (Sunflower; [18]) | Plant response rating, Surinam grass [1, 18] | Plant response rating, Ragweed, Common [4, 18] | Plant response rating, Ragweed, Common [4, 21] | Plant response rating, Corn (corn (Zea mays); [18]) | Plant response rating, Foxtail, Giant [6, 21] | Plant response rating, Morningglory [10, 19] | Plant response rating, Morningglory [10, 18] | Plant response rating (0 to 100), Morningglory [10, 20] | Plant response rating, Morningglory [10, 21] | Plant response rating, Pigweed [11, 18] | Plant response rating (0 to 100), Pigweed [11, 20] | Plant response rating, Velvetleaf [12, 18] | Plant response rating, Velvetleaf [12, 21] | Plant response rating, Nutsedge [14, 18] | Plant response rating, Nutsedge [14, 21]
40: Plant response rating, Sunflower (Sunflower; Rate 500 g/ha, scale 0 to 100) | Plant response rating, Soybean (soybean (Glycine max); [19]) | Plant response rating (0 to 100), Soybean (soybean (Glycine max); [20])
100: Plant response rating, Surinam grass [1, 19] | Plant response rating, Bermudagrass [2, 19] | Plant response rating (0 to 100 where 0 is no effect and 100 is complete control), Bermudagrass [2, 20] | Plant response rating, Bermudagrass [2, 21] | Plant response rating, Crabgrass [5, 19] | Plant response rating, Crabgrass [5, 18] | Plant response rating (0 to 100), Crabgrass [5, 20] | Plant response rating, Crabgrass [5, 21] | Plant response rating, Foxtail, Giant [6, 19] | Plant response rating (0 to 100), Foxtail, Giant [6, 20] | Plant response rating, Goosegrass [7, 19] | Plant response rating (0 to 100), Goosegrass [7, 20] | Plant response rating, Goosegrass [7, 21] | Plant response rating, Johnsongrass [8, 19] | Plant response rating (0 to 100), Johnsongrass [8, 20] | Plant response rating, Johnsongrass [8, 21] | Plant response rating, Kochia (kochia (Kochia scoparia); [19]) | Plant response rating (0 to 100), Kochia (kochia (Kochia scoparia); [20]) | Plant response rating, Lambsquarters [9, 19] | Plant response rating, Lambsquarters [9, 18] | Plant response rating (0 to 100), Lambsquarters [9, 20] | Plant response rating, Lambsquarters [9, 21] | Plant response rating, Pigweed [11, 19] | Plant response rating, Pigweed [11, 21] | Plant response rating, Cupgrass, Woolly [13, 19] | Barnyardgrass plant response rating ([15]; Rate 250 g/ha) | Barnyardgrass plant response rating ([15]; Rate 500 g/ha) | Plant response rating, Barnyardgrass ([15]; Rate 62 g/ha) | Plant response rating, Barnyardgrass ([15]; Rate 125 g/ha) | Ducksalad plant response rating ([16]; Rate 250 g/ha) | Ducksalad plant response rating ([16]; Rate 500 g/ha) | Plant response rating, Ducksalad ([16]; Rate 125 g/ha) | Flatsedge plant response rating ([17]; Rate 250 g/ha) | Flatsedge plant response rating ([17]; Rate 500 g/ha) | Plant response rating, Flatsedge ([17]; Rate 62 g/ha) | Plant response rating, Flatsedge ([17]; Rate 125 g/ha)
